Converted amounts (≈) assume the structure as drawn. Where two headings read alike, the source gives them in different places.
Columns and labels:
[1] = test system: MRSA BAA-1707; assay: MIC broth microdilution assay; assay type: cell-based, Staphylococcus aureus; conditions: Staphylococcus aureus
[2] = test system: MRSA BAA-44; assay: MIC broth microdilution assay; assay type: cell-based; conditions: Staphylococcus aureus
[3] = test system: MRSA-1; assay: MIC broth microdilution assay; assay type: cell-based, Staphylococcus aureus; conditions: Staphylococcus aureus, MRSA
[4] = test system: MRSA-2; assay: MIC broth microdilution assay; assay type: cell-based, Staphylococcus aureus; conditions: Staphylococcus aureus, MRSA; Table 1; read-out: MIC MRSA-2
[5] = test system: MRSE 35984; assay: MIC broth microdilution assay; assay type: cell-based, Staphylococcus epidermidis; conditions: Staphylococcus epidermidis, MRSE
[6] = test system: S. epi 12228; assay: MIC broth microdilution assay; assay type: cell-based, Staphylococcus epidermidis; conditions: Staphylococcus epidermidis, 12228; Table 1; read-out: MIC S. epi 12228
[7] = test system: MtB H37Ra; assay: MIC assay for Mycobacterium tuberculosis; assay type: cell-based; conditions: 168 h, seven days
[8] = LDH release assay for HeLa cytotoxicity; assay type: cell-based; conditions: human, HeLa cells; LDH release, 24 hours; tested at 25, 50 and 100 µM; read-out: HeLa Cytotox. IC50
[9] = test system: HeLa cells; assay: LDH release assay for HeLa cytotoxicity; assay type: cell-based; conditions: 100 µM
[10] = test system: MRSA BAA-1707; assay: MIC assay with metal(II) cation co-treatment; assay type: cell-based, Staphylococcus aureus
[11] = Chemical stability in aqueous formulations; assay type: physicochemical; conditions: room temperature
[12] = Hemolysis assay with red blood cells; conditions: human, pH 7.2
[13] = test system: VRE 700221; assay: MIC broth microdilution assay; assay type: cell-based, Enterococcus faecium; conditions: Enterococcus, VRE
[14] = test system: MRSA BAA-1707; assay: Calgary Biofilm Device (CBD) MBC/MBEC assay; assay type: cell-based, Staphylococcus aureus; conditions: Staphylococcus aureus, 24 h
[15] = test system: MRSE 35984; assay: Calgary Biofilm Device (CBD) MBC/MBEC assay; assay type: cell-based, Staphylococcus epidermidis
[16] = Table 1, read-out: MIC MRSA BAA-44
[17] = Table 1, read-out: MIC MRSE 35984
[18] = Table 3, read-out: MRSE 35984 MIC
[19] = supplement page 28, single CBD plate

Compound: COCCOCCOCCOCCOC(=O)Oc1c(Br)cc(Br)c2nc3c(C)cccc3nc12 [HP 25]
- MIC ([1]; Table 1, three independent experiments, read-out: MIC MRSA BAA-1707): 0.003 µM (≈ 0.00181 µg/mL)
- MIC ([1]; Table 3, read-out: MRSA BAA-1707 MIC): 0.003 µM (≈ 0.00181 µg/mL)
- MIC ([1]; single plate shown as picture, read-out: MIC (µM), MIC Assay against MRSA BAA-1707): 0.003 µM (≈ 0.00181 µg/mL)
- MIC [2, 16]: 0.013 µM (≈ 0.00783 µg/mL)
- MIC ([3]; Table 1, read-out: MIC MRSA-1): ≤ 0.1 µM
- MIC ([3]; single plate shown as picture, read-out: MIC (µM), MIC Assay Against MRSA-1): 0.1 µM (≈ 0.0602 µg/mL)
- MIC [4]: ≤ 100 nM
- MIC [5, 17]: 150 nM (≈ 0.0903 µg/mL)
- MIC [5, 18]: 150 nM (≈ 0.0903 µg/mL)
- MIC [6]: ≤ 100 nM
- MIC [7]: 12500 nM (≈ 7.53 µg/mL)
- IC50 at 24 h [8]: > 100 µM
- HeLa cell cytotoxicity at 100 µM [9]: no HeLa cell cytotoxicity
- MIC ([10]; Staphylococcus aureus, Cu(II) co-treatment plate, lanes without metal, read-out: MIC): 0.1 µM
- MIC ([10]; Staphylococcus aureus, Fe(II) co-treatment plate, lanes without metal, read-out: MIC): 0.1 µM
- MIC ([10]; Staphylococcus aureus, Mg(II) co-treatment plate, lanes without metal, read-out: MIC): 0.003 µM
- MIC ([10]; Staphylococcus aureus, Table 2, MRSA BAA-1707, no metal(II) cation added, read-out: MIC): 0.0047 µM
- MIC ([10]; Staphylococcus aureus, Zn(II) extended plate assay, lanes without metal, read-out: MIC): 0.003 µM
- MIC ([10]; Staphylococcus aureus, copper(II) at 200 µM co-treatment, read-out: MIC w/Cu2+): > 100 µM
- MIC ([10]; Staphylococcus aureus, iron(II) at 200 µM co-treatment, read-out: MIC w/Fe2+): 25 µM
- MIC ([10]; Staphylococcus aureus, magnesium(II) at 200 µM co-treatment, read-out: MIC w/Mg2+): 0.0047 µM
- MIC ([10]; Staphylococcus aureus, single plate, 200 µM Cu(II), read-out: MIC (µM) + Cu(II)): > 100 µM
- MIC ([10]; Staphylococcus aureus, single plate, 200 µM Fe(II), read-out: MIC (µM) + Fe(II)): 25 µM
- MIC ([10]; Staphylococcus aureus, single plate, 200 µM Mg(II), read-out: MIC (µM) + Mg(II)): 0.003 µM
- MIC ([10]; Staphylococcus aureus, zinc(II) at 200 µM co-treatment, read-out: MIC w/Zn2+): 7e-05 µM
- MIC ([10]; extended plate assay, 200 µM Zn(II), read-out: MIC (µM) + Zn(II)): 0.00005 µM
- chemically stable in aqueous formulations [11]: > 1 month
- hemolysis at 1 h, 200 µM [12]: ≤ 1%

Compound: COCCOCCOCCOCCOC(=O)Oc1c(Br)cc(Br)c2nc3ccccc3nc12 [HP 24]
- MIC ([2]; single plate shown as picture, read-out: MIC (µM), MIC Assay Against MRSA BAA-44): 1.56 µM (≈ 0.918 µg/mL)
- MIC [2, 16]: 1.56 µM (≈ 0.918 µg/mL)
- MIC [4]: 2350 nM (≈ 1.38 µg/mL)
- MIC [5, 17]: 1560 nM (≈ 0.918 µg/mL)
- MIC [5, 18]: 1560 nM (≈ 0.918 µg/mL)
- MIC [6]: 780 nM (≈ 0.459 µg/mL)
- MIC ([13]; Table 1, read-out: MIC VRE 700221): 6250 nM (≈ 3.68 µg/mL)
- MIC ([13]; Table 3, read-out: VRE 700221 MIC): 6250 nM (≈ 3.68 µg/mL)
- MIC [7]: 25000 nM (≈ 14.7 µg/mL)
- IC50 at 24 h [8]: > 100 µM
- HeLa cell cytotoxicity at 100 µM [9]: no HeLa cell cytotoxicity
- MBC ([14]; CBD, planktonic killing, 24 hours treatment, read-out: MRSA BAA-1707 MBC): 75000 nM (≈ 44.1 µg/mL)
- MBC ([14]; supplement page 27, second CBD plate, read-out: MRSA Planktonic Killing MBC): 100000 nM (≈ 58.8 µg/mL)
- MBC ([15]; Staphylococcus epidermidis, MRSE, CBD, planktonic killing, read-out: MRSE 35984 MBC): 75000 nM (≈ 44.1 µg/mL)
- MRSE Biofilm Eradication MBEC [15, 19]: 100 µM
- MRSE Planktonic Killing MBC [15, 19]: 50000 nM
- chemically stable in aqueous formulations [11]: > 1 month
- hemolysis at 1 h, 200 µM [12]: 2.4%
